In PMC10221159, “Investigation of N-Acetyltransferase 2-Mediated Drug Interactions of Amifampridine: In Vitro and In Vivo Evidence of Drug Interactions with Acetaminophen” (Pharmaceutics, 2023):
Like-named read-outs stand apart in the source and are kept apart here.

Test: Tissue distribution of amifampridine and 3-N-acetylamifampridine in rats
Type: in vivo, rat
Conditions: for Kp at 1 h: rat, 60 min after oral amifampridine 2 mg/kg
Experimental: To investigate the effects of acetaminophen on the tissue distribution of amifampridine and 3-N-acetylamifampridine, rats were sacrificed at 60 min after administration of amifampridine in control and acetaminophen-treated rats (n = 6) as mentioned above, and the tissues, including liver, kidney, heart, lungs, spleen, brain, and muscle tissues, were obtained. Tissue samples were homogenized using a Wheaton^TM Dounce tissue grinder (Wheaton Millipore, Billerica, MA, USA) after adding a three-fold volume of PBS. An amount of 100 μL of tissue homogenates was transferred to the tube and 200 μL of IS solution was then added and vortexed followed by centrifugation at 14,000 rpm for 15 min at 4 °C. The supernatants were transferred to LC vials for quantification. For muscle samples, the supernatant was concentrated using a desiccator and reconstituted with the mobile phase solvent.

[1] = 60 min, acetaminophen-treated vs control rats

SMILES: Nc1ccncc1N [amifampridine]
- increase of concentration in liver [1]: 270.26%
- increase of concentration in muscle [1]: 413.11%
- increase of concentration in spleen [1]: 265.17%
- Kp at 1 h (Sprague Dawley, brain, acetaminophen 100 mg/kg, read-out: Tissue partition coefficient (Kp), Brain): 0.1
- Kp at 1 h (Sprague Dawley, brain, control, read-out: Tissue partition coefficient (Kp), Brain): 0.1 ± 0.3
- Kp at 1 h (Sprague Dawley, heart, acetaminophen 100 mg/kg, read-out: Tissue partition coefficient (Kp), Heart): 0.7 ± 0.5
- Kp at 1 h (Sprague Dawley, heart, control, read-out: Tissue partition coefficient (Kp), Heart): 0.6 ± 0.5
- Kp at 1 h (Sprague Dawley, lungs, acetaminophen 100 mg/kg, read-out: Tissue partition coefficient (Kp), Lungs): 2.2 ± 2.8
- Kp at 1 h (Sprague Dawley, lungs, control, read-out: Tissue partition coefficient (Kp), Lungs): 1.7 ± 1.1
- Kp at 1 h (Sprague Dawley, spleen, acetaminophen 100 mg/kg, read-out: Tissue partition coefficient (Kp), Spleen): 1.6 ± 1
- Kp at 1 h (Sprague Dawley, spleen, control, read-out: Tissue partition coefficient (Kp), Spleen): 1 ± 0.5
- decrease of Kp in the kidneys (acetaminophen-treated vs control rats): 51%
- Kp at 1 h (male, Sprague-Dawley, kidney, acetaminophen 100 mg/kg, read-out: Tissue partition coefficient (Kp), Kidney): 3.6 ± 0.4
- Kp at 1 h (male, Sprague-Dawley, kidney, control, read-out: Tissue partition coefficient (Kp), Kidney): 7.4 ± 2.7
- Kp at 1 h (male, Sprague-Dawley, liver, acetaminophen 100 mg/kg, read-out: Tissue partition coefficient (Kp), Liver): 3 ± 1.5
- Kp at 1 h (male, Sprague-Dawley, liver, control, read-out: Tissue partition coefficient (Kp), Liver): 3.8 ± 2.6
- Kp at 1 h (male, Sprague-Dawley, muscle, acetaminophen 100 mg/kg, read-out: Tissue partition coefficient (Kp), Muscle): 0.4 ± 0.2
- Kp at 1 h (male, Sprague-Dawley, muscle, control, read-out: Tissue partition coefficient (Kp), Muscle): 0.5 ± 0.4
